Measured values reported in PMC4774911, “Biochemical Screening of Five Protein Kinases from Plasmodium falciparum against 14,000 Cell-Active Compounds” (PLoS ONE, 2016).
Values joined by “and” are separate entries in the source; they are usually repeats but may differ in a detail not shown here. Equal entries are not always repeated.

Legend:
Assay in all cases: biochemical
CAMK2G = CAMK2G (Homo sapiens, UniProt Q13555)
CDK5 = CDK5 (Homo sapiens, UniProt Q00535)
CSK = CSK (Homo sapiens, UniProt P41240)
ITK = biological target: T1, ITK (Homo sapiens, UniProt Q08881)
T1 sequence (Q08881 1-620): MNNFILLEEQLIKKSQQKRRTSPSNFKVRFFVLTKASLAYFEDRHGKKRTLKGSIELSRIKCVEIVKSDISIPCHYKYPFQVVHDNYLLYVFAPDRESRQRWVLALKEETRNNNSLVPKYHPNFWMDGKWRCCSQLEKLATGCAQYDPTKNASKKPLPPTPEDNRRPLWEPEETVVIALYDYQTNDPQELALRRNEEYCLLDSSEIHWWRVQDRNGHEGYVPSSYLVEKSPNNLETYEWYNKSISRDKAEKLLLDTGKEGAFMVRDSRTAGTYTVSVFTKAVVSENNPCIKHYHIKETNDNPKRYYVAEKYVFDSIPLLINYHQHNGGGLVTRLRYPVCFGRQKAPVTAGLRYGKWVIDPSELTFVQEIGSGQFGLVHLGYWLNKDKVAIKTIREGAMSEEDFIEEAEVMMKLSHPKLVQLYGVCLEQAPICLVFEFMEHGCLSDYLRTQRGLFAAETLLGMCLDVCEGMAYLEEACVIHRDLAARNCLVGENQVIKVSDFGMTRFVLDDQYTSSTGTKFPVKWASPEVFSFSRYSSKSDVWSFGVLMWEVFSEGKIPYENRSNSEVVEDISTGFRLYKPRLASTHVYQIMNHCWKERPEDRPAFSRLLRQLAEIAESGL

JAK1 = JAK1 (Homo sapiens, UniProt P23458)
MAP2K1 = MAP2K1 (Homo sapiens, UniProt Q02750)
MAP2K5 = biological target: T2, MAP2K5 (Homo sapiens, UniProt Q13163)
T2 sequence (Q13163 1-448): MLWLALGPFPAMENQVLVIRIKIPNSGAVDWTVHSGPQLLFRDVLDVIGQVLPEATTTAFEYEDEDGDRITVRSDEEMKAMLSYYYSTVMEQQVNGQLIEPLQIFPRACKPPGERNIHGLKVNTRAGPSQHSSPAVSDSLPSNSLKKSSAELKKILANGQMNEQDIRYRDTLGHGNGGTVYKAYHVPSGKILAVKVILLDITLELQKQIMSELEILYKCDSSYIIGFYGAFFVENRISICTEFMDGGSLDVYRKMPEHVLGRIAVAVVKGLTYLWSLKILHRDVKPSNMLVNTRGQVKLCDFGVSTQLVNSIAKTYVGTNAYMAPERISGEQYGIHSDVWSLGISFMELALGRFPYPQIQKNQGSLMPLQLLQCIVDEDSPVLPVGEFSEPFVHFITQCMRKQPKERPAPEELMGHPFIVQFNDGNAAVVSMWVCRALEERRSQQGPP

RPS6KA5 = RPS6KA5 (Homo sapiens, UniProt O75582)
STK17A = biological target: T3, STK17A (Homo sapiens, UniProt Q9UEE5)
T3 sequence (Q9UEE5 1-414): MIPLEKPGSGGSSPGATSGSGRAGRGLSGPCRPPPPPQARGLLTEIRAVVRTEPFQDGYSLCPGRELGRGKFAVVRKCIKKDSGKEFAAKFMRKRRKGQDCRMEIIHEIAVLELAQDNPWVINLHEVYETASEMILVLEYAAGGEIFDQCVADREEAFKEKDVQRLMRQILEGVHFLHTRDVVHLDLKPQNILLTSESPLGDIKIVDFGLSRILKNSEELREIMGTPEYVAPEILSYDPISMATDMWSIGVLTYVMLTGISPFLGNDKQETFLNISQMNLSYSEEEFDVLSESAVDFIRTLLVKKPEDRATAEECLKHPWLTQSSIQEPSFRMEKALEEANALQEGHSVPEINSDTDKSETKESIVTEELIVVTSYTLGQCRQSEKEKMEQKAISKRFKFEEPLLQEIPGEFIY

STK38 = STK38 (Homo sapiens, UniProt Q15208)
ULK3 = biological target: T4, ULK3 (Homo sapiens, UniProt Q6PHR2)
T4 sequence (Q6PHR2 1-472): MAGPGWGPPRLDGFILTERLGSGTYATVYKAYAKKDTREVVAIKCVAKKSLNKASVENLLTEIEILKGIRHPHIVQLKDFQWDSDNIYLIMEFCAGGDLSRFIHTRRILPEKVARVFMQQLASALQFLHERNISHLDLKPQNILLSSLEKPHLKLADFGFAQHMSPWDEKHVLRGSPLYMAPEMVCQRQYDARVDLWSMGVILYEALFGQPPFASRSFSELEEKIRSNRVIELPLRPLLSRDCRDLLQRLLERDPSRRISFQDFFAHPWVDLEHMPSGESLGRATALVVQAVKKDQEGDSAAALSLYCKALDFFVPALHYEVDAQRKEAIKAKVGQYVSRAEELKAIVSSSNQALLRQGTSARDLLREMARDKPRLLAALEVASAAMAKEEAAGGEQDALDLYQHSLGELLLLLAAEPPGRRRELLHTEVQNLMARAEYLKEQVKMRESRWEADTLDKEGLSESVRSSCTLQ

Sequence of STK38 (Q15208 whole entry): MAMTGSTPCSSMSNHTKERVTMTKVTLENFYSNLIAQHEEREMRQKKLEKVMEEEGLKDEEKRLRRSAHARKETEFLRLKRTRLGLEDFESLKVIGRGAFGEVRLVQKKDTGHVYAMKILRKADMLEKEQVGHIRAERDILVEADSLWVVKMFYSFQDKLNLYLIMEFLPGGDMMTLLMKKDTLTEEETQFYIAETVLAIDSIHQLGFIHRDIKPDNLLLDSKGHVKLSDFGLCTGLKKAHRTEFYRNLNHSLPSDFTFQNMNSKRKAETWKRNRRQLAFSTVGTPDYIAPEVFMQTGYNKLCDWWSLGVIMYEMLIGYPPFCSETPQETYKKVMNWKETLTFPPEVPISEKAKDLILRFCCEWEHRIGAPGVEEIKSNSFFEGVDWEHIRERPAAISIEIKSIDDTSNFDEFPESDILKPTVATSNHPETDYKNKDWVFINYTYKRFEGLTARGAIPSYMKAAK
Sequence of MAP2K1 (Q02750 whole entry): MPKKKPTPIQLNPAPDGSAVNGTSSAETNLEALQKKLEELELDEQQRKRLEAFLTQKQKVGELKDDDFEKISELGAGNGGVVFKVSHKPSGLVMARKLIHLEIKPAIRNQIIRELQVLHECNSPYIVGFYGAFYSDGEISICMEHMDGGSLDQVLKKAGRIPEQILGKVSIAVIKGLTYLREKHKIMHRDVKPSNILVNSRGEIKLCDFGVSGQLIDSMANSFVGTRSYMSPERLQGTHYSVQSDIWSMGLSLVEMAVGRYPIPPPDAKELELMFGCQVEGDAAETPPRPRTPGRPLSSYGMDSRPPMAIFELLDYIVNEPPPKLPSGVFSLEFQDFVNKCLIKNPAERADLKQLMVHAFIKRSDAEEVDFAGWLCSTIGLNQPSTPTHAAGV
Sequence of CDK5 (Q00535 whole entry): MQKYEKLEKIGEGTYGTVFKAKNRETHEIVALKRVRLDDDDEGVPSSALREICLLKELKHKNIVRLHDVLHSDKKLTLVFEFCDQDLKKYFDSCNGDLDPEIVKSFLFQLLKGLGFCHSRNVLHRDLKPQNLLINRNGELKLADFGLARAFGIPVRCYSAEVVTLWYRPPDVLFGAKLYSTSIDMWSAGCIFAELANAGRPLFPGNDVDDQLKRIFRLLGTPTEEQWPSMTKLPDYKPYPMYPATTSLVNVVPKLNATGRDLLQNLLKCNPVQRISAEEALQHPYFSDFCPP
Sequence of RPS6KA5 (O75582 whole entry): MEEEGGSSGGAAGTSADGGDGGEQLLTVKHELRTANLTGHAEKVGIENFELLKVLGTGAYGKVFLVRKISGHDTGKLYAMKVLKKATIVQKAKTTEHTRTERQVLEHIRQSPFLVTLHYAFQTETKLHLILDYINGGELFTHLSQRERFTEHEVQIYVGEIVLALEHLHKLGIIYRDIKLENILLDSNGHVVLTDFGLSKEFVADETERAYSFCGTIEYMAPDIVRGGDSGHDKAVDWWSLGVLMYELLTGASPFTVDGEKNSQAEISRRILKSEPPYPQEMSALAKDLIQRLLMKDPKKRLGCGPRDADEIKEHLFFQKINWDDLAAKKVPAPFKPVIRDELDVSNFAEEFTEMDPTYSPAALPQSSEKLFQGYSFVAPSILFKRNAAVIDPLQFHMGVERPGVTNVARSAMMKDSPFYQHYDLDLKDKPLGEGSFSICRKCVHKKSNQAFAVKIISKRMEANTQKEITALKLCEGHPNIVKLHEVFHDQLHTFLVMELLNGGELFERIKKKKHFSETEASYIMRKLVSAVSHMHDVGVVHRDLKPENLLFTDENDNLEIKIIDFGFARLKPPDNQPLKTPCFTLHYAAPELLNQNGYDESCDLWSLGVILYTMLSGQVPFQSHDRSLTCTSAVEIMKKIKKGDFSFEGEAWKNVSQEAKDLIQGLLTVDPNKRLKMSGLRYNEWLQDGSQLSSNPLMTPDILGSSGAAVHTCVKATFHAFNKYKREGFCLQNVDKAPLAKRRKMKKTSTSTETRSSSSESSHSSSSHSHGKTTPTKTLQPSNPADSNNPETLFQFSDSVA
Sequence of CAMK2G (Q13555 whole entry): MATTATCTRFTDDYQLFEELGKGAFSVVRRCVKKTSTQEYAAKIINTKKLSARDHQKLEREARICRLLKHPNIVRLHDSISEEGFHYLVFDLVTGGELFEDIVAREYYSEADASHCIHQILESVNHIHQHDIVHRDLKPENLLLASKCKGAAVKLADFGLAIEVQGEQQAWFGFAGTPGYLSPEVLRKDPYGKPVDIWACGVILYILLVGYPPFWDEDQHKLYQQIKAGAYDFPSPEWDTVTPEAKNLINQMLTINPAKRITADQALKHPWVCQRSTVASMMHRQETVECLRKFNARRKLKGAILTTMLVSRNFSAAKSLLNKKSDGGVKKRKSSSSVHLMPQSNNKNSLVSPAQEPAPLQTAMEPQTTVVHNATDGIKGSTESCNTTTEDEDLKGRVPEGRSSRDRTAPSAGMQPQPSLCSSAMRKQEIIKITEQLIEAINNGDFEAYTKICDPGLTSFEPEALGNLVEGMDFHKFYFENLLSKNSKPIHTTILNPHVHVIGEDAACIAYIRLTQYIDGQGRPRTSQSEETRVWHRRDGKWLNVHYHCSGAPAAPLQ
Sequence of JAK1 (P23458 whole entry): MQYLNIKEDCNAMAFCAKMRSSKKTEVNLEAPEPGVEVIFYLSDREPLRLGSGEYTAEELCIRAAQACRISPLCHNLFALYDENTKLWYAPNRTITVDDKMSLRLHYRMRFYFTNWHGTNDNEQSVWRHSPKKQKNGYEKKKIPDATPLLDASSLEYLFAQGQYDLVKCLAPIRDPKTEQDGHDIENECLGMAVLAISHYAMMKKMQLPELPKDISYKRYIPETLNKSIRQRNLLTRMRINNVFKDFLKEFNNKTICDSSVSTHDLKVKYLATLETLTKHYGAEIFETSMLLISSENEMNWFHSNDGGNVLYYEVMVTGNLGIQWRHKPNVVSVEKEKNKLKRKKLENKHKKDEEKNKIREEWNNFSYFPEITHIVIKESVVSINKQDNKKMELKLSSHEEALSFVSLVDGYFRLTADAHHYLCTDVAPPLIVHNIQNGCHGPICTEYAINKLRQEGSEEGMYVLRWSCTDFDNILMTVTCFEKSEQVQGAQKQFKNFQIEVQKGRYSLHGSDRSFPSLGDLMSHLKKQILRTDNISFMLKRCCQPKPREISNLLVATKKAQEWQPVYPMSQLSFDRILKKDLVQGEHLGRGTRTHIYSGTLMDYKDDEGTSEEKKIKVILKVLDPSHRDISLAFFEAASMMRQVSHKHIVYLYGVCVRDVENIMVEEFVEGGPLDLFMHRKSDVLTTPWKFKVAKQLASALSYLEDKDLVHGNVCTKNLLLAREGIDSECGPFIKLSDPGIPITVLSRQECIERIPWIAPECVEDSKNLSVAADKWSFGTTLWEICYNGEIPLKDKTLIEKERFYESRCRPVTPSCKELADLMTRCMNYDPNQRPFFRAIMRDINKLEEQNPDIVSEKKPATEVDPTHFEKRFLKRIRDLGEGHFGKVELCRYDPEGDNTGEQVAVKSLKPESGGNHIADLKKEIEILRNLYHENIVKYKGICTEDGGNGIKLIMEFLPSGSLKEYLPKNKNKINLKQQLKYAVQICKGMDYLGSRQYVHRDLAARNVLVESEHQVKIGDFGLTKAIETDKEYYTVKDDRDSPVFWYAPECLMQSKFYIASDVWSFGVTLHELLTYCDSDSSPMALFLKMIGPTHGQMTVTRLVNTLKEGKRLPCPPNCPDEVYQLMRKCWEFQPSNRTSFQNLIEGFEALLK
Sequence of CSK (P41240 whole entry): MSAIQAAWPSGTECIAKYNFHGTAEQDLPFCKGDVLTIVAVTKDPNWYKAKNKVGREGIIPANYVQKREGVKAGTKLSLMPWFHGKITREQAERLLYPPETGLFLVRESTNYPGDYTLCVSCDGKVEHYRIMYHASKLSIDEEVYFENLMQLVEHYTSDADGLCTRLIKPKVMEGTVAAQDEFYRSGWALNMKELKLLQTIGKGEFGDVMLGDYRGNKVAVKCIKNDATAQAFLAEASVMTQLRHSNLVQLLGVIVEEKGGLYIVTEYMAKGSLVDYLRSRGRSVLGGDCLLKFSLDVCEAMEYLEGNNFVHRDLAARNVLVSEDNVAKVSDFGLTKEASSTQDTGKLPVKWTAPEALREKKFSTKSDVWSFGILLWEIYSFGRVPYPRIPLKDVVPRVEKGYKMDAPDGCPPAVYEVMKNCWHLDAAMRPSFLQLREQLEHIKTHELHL

SMILES: CN1CCN(c2ccc(Nc3ncc(C#N)c(Nc4ccccc4C(N)=O)n3)cc2)CC1.Cl [TCMDC-134116]
- IC50 (CAMK2G): 1500 nM and 1300 nM
- IC50 (CDK5): 67 nM and 110 nM
- IC50 (CSK): 4100 nM
- IC50 (ITK): 140 nM
- IC50 (JAK1): 53 nM and 79 nM
- IC50 (MAP2K1): 1800 nM and 1600 nM
- IC50 (MAP2K5): 400 nM and 520 nM
- IC50 (RPS6KA5): 500 nM and 750 nM
- IC50 (STK17A): 180 nM
- IC50 (STK38): 350 nM and 290 nM
- IC50 (ULK3): 60 nM and 95 nM

SMILES: Cl.NCC1(c2nc(-c3ccc(Cl)c(O)c3)c(-c3ccncc3)[nH]2)CCCCC1 [TCMDC-141154]
- IC50 (CAMK2G): > 20000 nM
- IC50 (CDK5): > 20000 nM
- IC50 (CSK): 4400 nM
- IC50 (ITK): > 20000 nM
- IC50 (JAK1): > 20000 nM
- IC50 (MAP2K1): 9700 nM and > 20000 nM
- IC50 (MAP2K5): 880 nM
- IC50 (RPS6KA5): > 20000 nM
- IC50 (STK17A): > 20000 nM
- IC50 (STK38): > 20000 nM
- IC50 (ULK3): > 20000 nM

SMILES: CN(C)CC(O)COc1ccc(Nc2ncc([N+](=O)[O-])c(Nc3ccccc3O)n2)cc1.O=C(O)C(F)(F)F (stereo not drawn) [TCMDC-141399]
- IC50 (CAMK2G): > 20000 nM
- IC50 (CDK5): > 20000 nM
- IC50 (CSK): > 20000 nM
- IC50 (ITK): 1700 nM
- IC50 (JAK1): 1100 nM and 1400 nM
- IC50 (MAP2K1): > 20000 nM
- IC50 (MAP2K5): > 20000 nM
- IC50 (RPS6KA5): > 20000 nM
- IC50 (STK17A): 4200 nM
- IC50 (STK38): > 20000 nM
- IC50 (ULK3): > 20000 nM
